One assay concerns Pyrenophora teres. Briefly: Activity against net blotch of barley caused by Pyrenophora teres, protective application. In kind it is in vivo, Pyrenophora [syn. Drechslera] teres on barley. The settings on record: barley seedlings, rated after 6 days. The procedure:
(§1) The active compounds were separately or jointly prepared as a stock solution comprising 25 mg of active compound which was made up to 10 ml using a mixture of acetone and/or DMSO and the emulsifier Uniperol® EL (wetting agent having emulsifying and dispersing action based on ethoxylated alkylphenols) in a volume ratio of solvent/emulsifier of 99 to 1. The mixture was then made up with water to 100 ml. This stock solution was diluted with the solvent/emulsifier/water mixture described to the concentration of active compounds stated below.
(§2) The visually determined percentages of infected leaf areas were converted into efficacies in % of the untreated control:
The efficacy (E) is calculated as follows using Abbot's formula: E=(1−α/β)·100 α corresponds to the fungicidal infection of the treated plants in % and β corresponds to the fungicidal infection of the untreated (control) plants in %
An efficacy of 0 means that the infection level of the treated plants corresponds to that of the untreated control plants; an efficacy of 100 means that the treated plants were not infected.
Leaves of potted barley seedlings were sprayed to runoff point with an aqueous suspension having the concentration of active compound stated below. After 5 days, the test plants were inoculated with an aqueous spore suspension of Pyrenophora [syn. Drechslera] teres, the net blotch pathogen. The test plants were then placed in a greenhouse at temperatures between 20 and 24° C. and 95 to 100% relative atmospheric humidity. After 6 days, the extent of the disease development was determined visually in % infection of the entire leaf area.

The test system of another assay is Botrytis cinerea. Briefly: Activity against the gray mold pathogen Botrytis cinerea in the microtiter test. It is filed as cell-based. The following applies: 1 ppm; microtiter plate, 405 nm, day 7 after inoculation. An excerpt: For the microtiter tests, the active compounds were formulated separately as a stock solution having a concentration of 10 000 ppm in DMSO.
In the microtiter tests, the measured parameters were offset with the growth of the active-compound-free control variant and the fungus- and active-compound-free blank value, in order to determine the relative growth in % of the pathogens in the individual active compounds.
The stock solutions were mixed according to the ratio, pipetted into a microtiter plate (MTP) and diluted to the stated active compound concentration using a malt-based aqueous nutrient medium for fungi. An aqueous spore suspension of Botrytis cinerea was then added. The plates were placed in a water vapor-saturated chamber at temperatures of 18° C. Using an absorption photometer, the MTPs were measured at 405 nm on day 7 after the inoculation.

In the next assay the test system is Alternaria solani. Put plainly: Activity against early blight of tomato caused by Alternaria solani. It is filed as in vivo, Alternaria solani on tomato. The settings on record: 4 ppm; tomato cultivar Goldene Königin, sprayed 1 day before infection, rated after 5 days. The method, then:
as §1, §2
The efficacy (E) is calculated as follows using Abbot's formula: E=(1−α/β)·100 α corresponds to the fungicidal infection of the treated plants in % and β corresponds to the fungicidal infection of the untreated (control) plants in % […]
Leaves of potted plants of the cultivar “Goldene Königin” were sprayed to runoff point with an aqueous suspension having the concentration of active compound stated below. […] After 5 days, the disease on the untreated but infected control plants had developed to such an extent that the infection could be determined visually in %.

As to `CO/C=C(/C(=O)OC)c1ccccc1CO/N=C(C)/C=C/c1ccc(Cl)cc1` [enestroburin (I), methyl 2-{2-[3-(4-chlorophenyl)-1-methylallylideneaminooxymethyl]phenyl}-3-methoxyacrylate], the “Observed activity (%)” value in the assay with Pyrenophora teres (63 ppm, sprayed 5 days before inoculation) is 56%; in the assay with Botrytis cinerea, 12%; in the assay with Alternaria solani, 22%.
Turning to `Cc1ccc(C(C)NC(=O)[C@@H](NC(=O)OC(C)C)C(C)C)cc1` (stereo partly drawn) [iprovalicarb (II-11), isopropyl [(1S)-2-methyl-1-(1-p-tolylethylcarbamoyl)propyl]carbamate], the “Observed activity (%)” value with Alternaria solani amounted to 0%.
As to “manganese ethylenebis(dithiocarbamate) (polymer) complex zinc salt [mancozeb (II-1)]”, the “Observed activity (%)” value worked out at 0% in the assay with Pyrenophora teres (16 ppm, protective) and 22% in the assay on Pyrenophora teres (250 ppm, protective).
“zinc ammoniate ethylenebis(dithiocarbamate) [metiram (II-4)]”: in the assay with Botrytis cinerea, the “Observed activity (%)” value came to 7%.
